{"source": "patent US20110287439A1", "about": "“CLAS[…]” (reMYND NV, priority 2008, published 2011)", "system": "Yeast strain SKAM4 RAD54-LacZ reporter", "test": "Radarscreen with luminescence and S9 metabolic activation", "conditions": "analysed with S9 compared with without S9; 6 hours at 30° C.; 2% S9", "method": "Yeast strain SKAM4 bears a RAD54-LacZ reporter construct, which is responsive to agents that affect the integrity of its genomic DNA. Compounds supplied to the growth medium can be evaluated for genotoxicity by determining their effect on reporter gene expression. Reporter activity is measured by adding Beta-Glo® cell lyses buffer, containing a beta-galactosidase substrate, to the yeast culture. The substrate is cleaved by beta-galactosidase to luciferin and galactose. Luciferin is then used in a luciferase reaction to generate light. Metabolic activation of the compounds is obtained by adding post mitochondrial supernatant S9. […]\nOD595 of the overnight cultures has to be determined. […]\n600 μl S9-mixture is added to 5280 μl of the diluted culture and 600 μl buffer without S9 to 5280 μl of the diluted culture (these are quantities to fill 1 plate). […] The OD595 is measured after the plates have been vortexed rigorously to resuspend the precipitated yeast cells. […]\n50 μl Beta-Glo® cell lyses buffer is added to the wells and the plate is vortexed for 45-60 min whereafter luminescence is measured. […]\nLuminescence read out blanc correction is performed by subtraction of the luminescence value of medium without yeast cells from the luminescence read out of a sample with compound and dividing it by the corrected and normalized OD595 value. […]", "data": [{"smiles": "CC[n+]1c(-c2ccccc2)c2cc(N)ccc2c2ccc(N)cc21", "note": "[ethidium bromide]", "values": [{"measurement": "signal (induction factor)", "value": "higher signal when analysed with S9 than when analysed without S9"}]}]}
